Test results published in patent publication US12129312B2, “Peptide compound, application thereof and composition containing same” (priority 2017, dated 2024).
Where two headings read alike, the source gives them in different places. Numbered stars: 1 amine (or outer) side, 2 acyl side, 3 side chain; on linkers, the order of the positions; unused ones are H or OH. Square brackets hold non-standard residues; d marks the D form. Peptide text beside a SMILES is read from it. * marks the point of attachment. Benzoyl(4-CF3) = O=C(c1ccc(C(F)(F)F)cc1)*; X5 = O=C([C@H]1c2ccccc2CCN1[*:1])[*:2]; dNMeY = CN[C@H](Cc1ccc(O)cc1)C(=O)O; Butanoyl(4-Ph) = O=C(CCCc1ccccc1)*; Hydrocinnamoyl = O=C(CCc1ccccc1)*; NMeF = CN[C@@H](Cc1ccccc1)C(=O)O; Tic = O=C(O)[C@@H]1Cc2ccccc2CN1; Gly(N-CH2CH2OH) = O=C(O)CNCCO; NMeL = CN[C@@H](CC(C)C)C(=O)O; d(hSer) = N[C@H](CCO)C(=O)O; NMeS = CN[C@@H](CO)C(=O)O; Pip = O=C(O)[C@@H]1CCCCN1; Nle = CCCC[C@H](N)C(=O)O; Thz = O=C(O)[C@@H]1CSCN1

Biological target: T1, human Chemokine like receptor 1 (Homo sapiens, UniProt Q99788)
T1 construct: host or cells: U2OS (Tango CMKLR1-bla U2OS)
T1 sequence (Q99788 1-373): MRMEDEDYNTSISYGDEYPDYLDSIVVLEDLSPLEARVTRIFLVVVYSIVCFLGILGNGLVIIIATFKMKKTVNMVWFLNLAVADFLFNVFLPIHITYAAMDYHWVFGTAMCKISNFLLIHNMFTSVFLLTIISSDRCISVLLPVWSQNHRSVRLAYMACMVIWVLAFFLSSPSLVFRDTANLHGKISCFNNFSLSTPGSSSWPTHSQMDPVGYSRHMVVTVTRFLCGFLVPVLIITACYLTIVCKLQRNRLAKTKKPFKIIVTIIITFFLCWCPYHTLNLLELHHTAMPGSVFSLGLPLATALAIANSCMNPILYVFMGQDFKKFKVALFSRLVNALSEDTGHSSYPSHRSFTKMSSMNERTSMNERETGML
Assay: Activation of Tango CMKLR1-bla U2OS cells (beta-lactamase FRET reporter)
Assay type: cell-based
Protocol: The polypeptide sequences described above are the polypeptide sequences disclosed in the patent JP2010-229093A of BANYU PHARMA CO LTD: (D-Tyr)-Phe-Leu-Pro-(D-Ser)-Gln-Phe-(D-Ala)-Tic-Ser was used as a positive control (SEQ ID NO: 102).
The activation of the compound on Tango™ CMKLR1-bla U2OS cells (Invitrogen Cat. nos. K1551) was tested.
The activation of each compound in the above experiments on Tango™ CMKLR1-bla U2OS cells was determined as follows:
Day 1: Cell Seeding on Plate
2. The medium was removed, and the cells were washed with DPBS twice, followed by addition of 3 mL of 0.05% trypsin, and placed in a 37° C., 5% CO2 incubator (Thermo Fisher, Waltham, Massachusetts, USA) for 3-5 minutes. After the cells were rounded, 3-5 mL of medium (medium formula: DMEM 90%, Dialyzed FBS 10%, NEAA 0.1 mM, HEPES (pH 7.3) 25 mM, Penicillin 100 U/mL, Streptomycin 100 μg/mL) was added to terminate digestion.
2. The digested cells were transferred to a 15 mL centrifuge tube (430790, Corning), centrifuged at 1000 rpm for 5 minutes (5810R, Eppendorf, Hamburg, Germany), and the supernatant was discarded.
3. 7 mL of medium (DMEM+10% FBS) was added, blowed into a single cell suspension, counted by a cell counter, and adjusted the cell suspension to a desired cell density of 250,000/mL with the medium.
4. The cell suspension was seeded into a 384-well cell plate (Corning 3712) in 40 μL/well to make the number of cells 10000 cells/well, and 32 μL of medium was added to the blank control.
5. The incubation was performed overnight at 37° C. under 5% CO2.
Day 2: Dosing and Testing
1. Preparation of 200× Compound Plate
1.1 The test compound was formulated into a 10 mM working solution in DMSO.
1.2 45 μL of 10 mM test compound was added to the 2nd column of rows A to P in the Echo-384 well plate. The compound was subjected to a 3-fold dilution with Precision (30 μL of DMSO was added to the 3rd to 11th columns; 15 μL of the drug solution was pipetted from the 2nd column to the 3rd column, blown and evenly mixed; then 15 μL of the drug solution was pipetted from the 3rd column to the 4th column, blown and evenly mixed; the drugs was subjected to a 3-fold dilution to obtain 10 concentrations in total). The 1st and 12th columns of the Echo-384 well plate were supplemented with 30 μL of DMSO.
2. Preparation of Intermediate Plate
500 nL, i.e., 0.5 μL of the diluted compound (or DMSO) in the 200× compound plate was transferred into the corresponding position of V-bottom 384-well plate with Echo. 20 μL of medium was added to each well, centrifuged, shaken and evenly mixed. The concentration of the drugs in each well of the 2nd to 11th column of intermediate plate (i.e., 5× compound plate) were shown in following Table 4.
3.1 The cell plate was taken out from the incubator and observed under a microscope. The diluted compound or DMSO in the intermediate plate was added to the cell plate in 10 μL/well in the corresponding cell plate, and 40 μL of medium was pre-filled in each well.
3.2 The cells were incubated at 37° C. under 5% CO2 for 4 hours.
4.1 1 mM CCF4-AM, solution B, Solution C, and Solution D were used to prepare an appropriate amount of 6× detection solution. The LiveBLAzer™-FRET B/G Loading kit (K1095, Thermo Fisher, Waltham, Massachusetts, USA) kit containing CCF-4AM and solutionB, solutionC, and solutionD was also purchased from invitrogen (K1157, Thermo Fisher, Waltham, Massachusetts, USA).
4.2 The cells were observed under a microscope and the cell plate was equilibrated to room temperature.
4.3 6 μL of CCF-4AM dissolved solution A, 60 μL of solution B, 904 μL of solution C and 30 μL of solution D were pipetted in an EP tube, blown, and evenly mixed to obtain a 6× detection solution. The prepared 6× detection solution was pipetted to a 384-well plate in 10 μL/well.

[1] = determination by the method of Effect Embodiment 1, read-out: EC50

Compound | EC50 [1] [µM] | EC50 [µM]
CC(C)C[C@@H](C(=O)N1CCC[C@H]1C(=O)N[C@H](CO)C(=O)N[C@@H](CCC(N)=O)C(=O)N[C@@H](Cc1ccccc1)C(=O)N[C@H](C)C(=O)N1Cc2ccccc2C[C@H]1C(=O)N[C@@H](CO)C(=O)O)N(C)C(=O)[C@H](Cc1ccccc1)NC(=O)[C@@H](Cc1ccc(O)cc1)NC(=O)c1ccc(C(F)(F)F)cc1 [YW-195, 4-(trifluoromethyl)benzoyl-(D-Tyr)-Phe-(NMe-Leu)-Pro-(D-Ser)-Gln-Phe-(D-Ala)-Tic-Ser] ({Benzoyl(4-CF3)}-[dY]F[NMeL]P[dS]QF[dA][Tic]S-OH) | 0.0008 | 
CC(C)C[C@@H](C(=O)N1CCC[C@H]1C(=O)N[C@H](CO)C(=O)N[C@@H](CCC(N)=O)C(=O)N[C@@H](Cc1ccccc1)C(=O)N[C@H](C)C(=O)N1Cc2ccccc2C[C@H]1C(=O)N[C@@H](CO)C(N)=O)N(C)C(=O)[C@H](Cc1ccccc1)NC(=O)[C@@H](Cc1ccc(O)cc1)NC(=O)CCc1ccccc1 [YW-161, 3-phenylpropanoyl-(D-Tyr)-Phe-(NMe-Leu)-Pro-(D-Ser)-Gln-Phe-(D-Ala)-Tic-Ser-NH2] (Hydrocinnamoyl-[dY]F[NMeL]P[dS]QF[dA][Tic]S-NH2) | 0.003 | 
CCCC[C@H](NC(=O)[C@H](Cc1ccccc1)NC(=O)[C@H](N)Cc1ccc(O)cc1)C(=O)N1CCC[C@H]1C(=O)N[C@H](CO)C(=O)N[C@@H](CCC(N)=O)C(=O)N[C@@H](Cc1ccccc1)C(=O)N[C@H](C)C(=O)N1Cc2ccccc2C[C@H]1C(=O)N[C@@H](CO)C(=O)O [YW-197, (D-Tyr)-Phe-Nle-Pro-(D-Ser)-Gln-Phe-(D-Ala)-Tic-Ser] (H-[dY]F[Nle]P[dS]QF[dA][Tic]S-OH) |  | 0.01
CC(C)C[C@@H](C(=O)N1CCC[C@H]1C(=O)N[C@H](CO)C(=O)N[C@@H](CCC(N)=O)C(=O)N[C@@H](Cc1ccccc1)C(=O)N[C@H](C)C(=O)N1Cc2ccccc2C[C@H]1C(=O)N(CCO)CC(=O)O)N(C)C(=O)[C@H](Cc1ccccc1)NC(=O)[C@H](N)Cc1ccc(O)cc1 [YW-172, (D-Tyr)-Phe-(NMe-Leu)-Pro-(D-Ser)-Gln-Phe-(D-Ala)-Tic-NHoSer-OH] (H-[dY]F[NMeL]P[dS]QF[dA][Tic][Gly(N-CH2CH2OH)]-OH) | 0.0058 | 
CC(C)C[C@H](NC(=O)[C@H](Cc1ccccc1)NC(=O)[C@H](N)Cc1ccc(O)cc1)C(=O)N1CCC[C@H]1C(=O)N[C@H](CO)C(=O)N[C@@H](CCC(N)=O)C(=O)N[C@@H](Cc1ccccc1)C(=O)N[C@H](C)C(=O)N1Cc2ccccc2C[C@H]1C(=O)N(C)[C@@H](CO)C(=O)O [YW-110, (D-Tyr)-Phe-Leu-Pro-(D-Ser)-Gln-Phe-(D-Ala)-Tic-(NMe-Ser)-OH] (H-[dY]FLP[dS]QF[dA][Tic][NMeS]-OH) | 0.013 | 
CC(C)C[C@H](NC(=O)[C@H](Cc1ccccc1)NC(=O)[C@H](N)Cc1ccc(O)cc1)C(=O)N1CSC[C@H]1C(=O)N[C@H](CO)C(=O)N[C@@H](CCC(N)=O)C(=O)N[C@@H](Cc1ccccc1)C(=O)N[C@H](C)C(=O)N1Cc2ccccc2C[C@H]1C(=O)N[C@@H](CO)C(=O)O [YW-114, (D-Tyr)-Phe-Leu-Thz-(D-Ser)-Gln-Phe-(D-Ala)-Tic-Ser-OH] (H-[dY]FL[Thz][dS]QF[dA][Tic]S-OH) | 0.005 | 
CC(C)C[C@@H](C(=O)N1CCC[C@H]1C(=O)N[C@H](CCO)C(=O)N[C@@H](CCC(N)=O)C(=O)N[C@@H](Cc1ccccc1)C(=O)N[C@H](C)C(=O)N1Cc2ccccc2C[C@H]1C(=O)N[C@@H](CO)C(=O)O)N(C)C(=O)[C@H](Cc1ccccc1)NC(=O)[C@H](N)Cc1ccc(O)cc1 [YW-175, (D-Tyr)-Phe-(NMe-Leu)-Pro-(D-HoSer)-Gln-Phe-(D-Ala)-Tic-Ser-OH] (H-[dY]F[NMeL]P[d(hSer)]QF[dA][Tic]S-OH; N-terminus assumed) | 0.091 | 
CC(C)C[C@@H](C(=O)N1CCC[C@H]1C(=O)N[C@H](CO)C(=O)N[C@@H](CCC(N)=O)C(=O)N[C@@H](Cc1ccccc1)C(=O)N[C@H](C)C(=O)N1Cc2ccccc2C[C@H]1C(=O)N[C@@H](CO)C(=O)O)N(C)C(=O)[C@H](Cc1ccccc1)N(C)C(=O)[C@H](N)Cc1ccc(O)cc1 [YW-105, (D-Tyr)-(NMe-Phe)-(NMe-Leu)-Pro-(D-Ser)-Gln-Phe-(D-Ala)-Tic-Ser-OH] (H-[dY][NMeF][NMeL]P[dS]QF[dA][Tic]S-OH; N-terminus assumed) | 0.0106 | 
CN[C@H](Cc1ccc(O)cc1)C(=O)N[C@@H](Cc1ccccc1)C(=O)N(C)[C@@H](CC(C)C)C(=O)N1CCC[C@H]1C(=O)N[C@H](CO)C(=O)N[C@@H](CCC(N)=O)C(=O)N[C@@H](Cc1ccccc1)C(=O)N[C@H](C)C(=O)N1Cc2ccccc2C[C@H]1C(=O)N[C@@H](CO)C(=O)O [YW-163, (D-NMe-Tyr)-Phe-(NMe-Leu)-Pro-(D-Ser)-Gln-Phe-(D-Ala)-Tic-Ser-OH] (H-[dNMeY]F[NMeL]P[dS]QF[dA][Tic]S-OH) | 0.0022 | 
CC(C)C[C@H](NC(=O)[C@H](Cc1ccccc1)NC(=O)[C@H](N)Cc1ccc(O)cc1)C(=O)N1CCCC[C@H]1C(=O)N[C@H](CO)C(=O)N[C@@H](CCC(N)=O)C(=O)N[C@@H](Cc1ccccc1)C(=O)N[C@H](C)C(=O)N1Cc2ccccc2C[C@H]1C(=O)N[C@@H](CO)C(=O)O [YW-96, (D-Tyr)-Phe-Leu-(S-Pip)-(D-Ser)-Gln-Phe-(D-Ala)-Tic-Ser] (H-[dY]FL[Pip][dS]QF[dA][Tic]S-OH; N-terminus assumed) |  | 0.039
CC(C)C[C@@H](C(=O)N1CCC[C@H]1C(=O)N[C@H](CO)C(=O)N[C@@H](CCC(N)=O)C(=O)N[C@@H](Cc1ccccc1)C(=O)N[C@H](C)C(=O)N1Cc2ccccc2C[C@H]1C(=O)N[C@@H](CO)C(=O)O)N(C)C(=O)[C@H](Cc1ccccc1)NC(=O)[C@H](N)Cc1ccc(O)cc1 [YW-98, (D-Tyr)-Phe-(NMe-Leu)-Pro-(D-Ser)-Gln-Phe-(D-Ala)-Tic-Ser-OH] (H-[dY]F[NMeL]P[dS]QF[dA][Tic]S-OH) | 0.003 | 
CC(C)C[C@H](NC(=O)[C@H](Cc1ccccc1)NC(=O)[C@H](N)Cc1ccc(O)cc1)C(=O)N1CCC[C@H]1C(=O)N[C@H](CO)C(=O)N[C@@H](CCC(N)=O)C(=O)N[C@@H](Cc1ccccc1)C(=O)N[C@H](C)C(=O)N1CCc2ccccc2[C@@H]1C(=O)N[C@@H](CO)C(=O)O [YW-151, (D-Tyr)-Phe-Leu-Pro-(D-Ser)-Gln-Phe-(D-Ala)-D-Ti1c-Ser-OH] (H-[dY]FLP[dS]QF[dA][X5]S-OH) | 0.027 | 
CC(C)C[C@H](NC(=O)[C@H](Cc1ccccc1)NC(=O)[C@@H](Cc1ccc(O)cc1)NC(=O)CCCc1ccccc1)C(=O)N1CCC[C@H]1C(=O)N[C@H](CO)C(=O)N[C@@H](CCC(N)=O)C(=O)N[C@@H](Cc1ccccc1)C(=O)N[C@H](C)C(=O)N1Cc2ccccc2C[C@H]1C(=O)N[C@@H](CO)C(=O)O [YW-75, 4-Phenylbutanoyl-(D-Tyr)-Phe-Leu-Pro-(D-Ser)-Gln-Phe-(D-Ala)-Tic-Ser-OH] ({Butanoyl(4-Ph)}-[dY]FLP[dS]QF[dA][Tic]S-OH) | 0.05 | 
